{"source": "PubChem BioAssay AID2060887", "about": "(Molecular Pharmacology Branch, DTP, NCI, 2025)", "system": "782815-120-R-J1-PDC complex spheroid viability", "assay": "Anticancer human tumor 782815-120-R-J1-PDC patient-derived colon adenocarcinoma cell line growth inhibition [RAS]", "conditions": "for IC50: curve of first compound; for viability, T/C: stronger effect = lower value", "from_the_text": "RAS pathway inhibitors in Combinations in Complex Spheroids\nA high-throughput screen of multi-cell type tumor spheroids was designed to identify active combinations of RAS pathway inhibitors and targeted small molecules. Complex spheroids include a stromal component modeled by human endothelial cells (HUVEC) and fibroblasts modeled by human mesenchymal stem cells (MSCs). The concentration ranges selected for each drug and investigational agent were based upon clinically achievable concentrations if the clinical Cmax of the agent was known.\nCompounds. The drugs and investigational agents: abemaciclib (NSC768073), cobimetinib (NSC768068), divarasib (GDC6063, NSC841802), docetaxel (NSC628503), GDC-1971 (RLY-1971, NSC841576), gemcitabine (NSC613327), inavolisib (NSC800729), ipatasertib (NSC767898), KB-0742 (NSC834161), MRTX-1133 (NSC836407), osimertinib (NSC779217), RMC-4630 (NSC839698), RMC-6236 (NSC851965), RMC-6291 (NSC852671), Ro-3306 (NSC812927), sapanisertib (NSC764658), SN-38 (NSC673596), staurosporine (NSC755774), SY5609 (NSC837396), and tovorafenib (DAY101, NSC766906), were obtained from the National Cancer Institute (NCI) Developmental Therapeutics Program Chemical Repository. The FDA-approved anticancer drug set is available from the NCI Developmental Therapeutics Program. […] The stock solutions were prepared in dimethyl sulfoxide (DMSO, Sigma-Aldrich, St. Louis, MO, cat. D2650) at 800-fold the tested concentration and stored at -70 degrees C prior to their use. All drugs and investigational agents were tested over a range starting from a high concentration at or near the clinical Cmax and decreasing in half-log increments. If the clinical Cmax for an agent had not been determined, the highest concentration tested was 10 microM.\nCell Culture. All cells were maintained in an incubator at 37 degrees C and 5% CO2 with 95% humidity. The PDC lines were cultured according to standard operating procedures established by the NCI PDMR. All PDCs were thawed and cultured in Matrigel-coated flasks prepared with a working solution of 1X Ham's F-12 nutrient mix, without supplementation (Invitrogen, Waltham, MA, cat. 11765054), 100 U/mL penicillin-streptomycin (Invitrogen, cat. 15140122), and 2.5% Matrigel (Corning Inc., Corning, NY, cat. 354248) for the first three passages. The 362531-283-R-J2-PDC and 782815-120-R-J1-PDC lines were cultured in 6C/Colon 1B media, which includes advanced DMEM/F-12 (Thermo Fisher Scientific, cat. 12634028), 10 mM HEPES (Thermo Fisher Scientific, cat. 15630080), 1X GlutaMAX supplement (Thermo Fisher Scientific, cat. 35050061), 0.1 mg/mL primocin (InvivoGen, San Diego, CA, cat. ant-pm-2), 10% defined fetal bovine serum, heat inactivated (HyClone Laboratories Inc., Logan, UT, cat. SH30070.03HI), 50% L-WRN conditioned media (ATCC, cat. CRL-3276), 1.25 mM N-Acetyl-L-cysteine (Sigma-Aldrich, cat. A9165), 10 mM nicotinamide (Sigma-Aldrich, cat. N0636), 1X B-27 supplement (Thermo Fisher Scientific, cat. 17504044), 1X N-2 supplement (Thermo Fisher Scientific, cat. 17502048), 50 ng/mL human EGF (Thermo Fisher Scientific, cat. PHG0311), and 10 microM Y-27632 dihydrochloride (Tocris Bioscience, cat. 1254). The K12877-001-R-J1-PDC line was cultured in 6I media, which includes all 6C/Colon 1B media plus 10 ng/mL human FGF-10 (PeproTech, cat. 100-26), 1 ng/mL human FGF-2 (PeproTech, cat. 100-18B), 1 µM prostaglandin E2 (Tocris Bioscience, cat. 2296), […] hydrocortisone (Sigma-Aldrich, cat. H4001), and […] bovine insulin (Sigma-Aldrich, cat. I6634). The K86415-001-R-J1-PDC line was cultured in 6D media, which includes all 6C/Colon 1B media components minus the L-WRN conditioned media. The 485176-168-R4-J1-PDC was cultured in PANC media, which includes all 6C/Colon 1B media plus 100 ng/mL human FGF-10 (PeproTech, cat. 100-26), 500 nM SB-431542 (Selleckchem, cat. S1067), and 10 nM gastrin (Tocris Bioscience, cat. 3006). […]"}
{"compound": "NC1c2ccccc2OC12CCN(c1cnc3c(N4CCCc5ncccc54)n[nH]c3n1)CC2", "note": "(configuration not stated) + CCn1c(-c2cccnc2C(C)OC)c2c3cc(ccc31)N1CCOC(CC(NC(=O)C(C(C)C)N(C)C(=O)C3(F)CCN(C(=O)C#CC(C)(C)N(C)C)CC3)C(=O)N3CCCC(N3)C(=O)OCC(C)(C)C2)C1;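 note: spheroids exposed to compounds for 7 days before reading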;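 for viability, T/C: 100% = DMSO vehicle control viability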", "values": [{"measurement": "IC50", "setting": "second compound 0.000949 µM", "result": "> 10", "unit": "µM"}, {"measurement": "IC50", "setting": "second compound 0.003 µM", "result": "> 10", "unit": "µM"}, {"measurement": "IC50", "setting": "second compound 0.00949 µM", "result": "> 10", "unit": "µM"}, {"measurement": "IC50", "setting": "second compound 0.03 µM", "result": "> 10", "unit": "µM"}, {"measurement": "IC50", "setting": "second compound 0.0949 µM", "result": "> 10", "unit": "µM"}, {"measurement": "IC50", "setting": "second compound 0.3 µM", "result": "> 10", "unit": "µM"}, {"measurement": "viability, T/C", "setting": "second compound 0.000949 µM, first compound 0.0316 µM", "result": 97.9, "unit": "%"}, {"measurement": "viability, T/C", "setting": "second compound 0.000949 µM, first compound 0.1 µM", "result": 105, "unit": "%"}, {"measurement": "viability, T/C", "setting": "second compound 0.000949 µM, first compound 0.316 µM", "result": 108, "unit": "%"}, {"measurement": "viability, T/C", "setting": "second compound 0.000949 µM, first compound 1 µM", "result": 105, "unit": "%"}, {"measurement": "viability, T/C", "setting": "second compound 0.000949 µM, first compound 3.16 µM", "result": 93.9, "unit": "%"}, {"measurement": "viability, T/C", "setting": "second compound 0.000949 µM, first compound 10 µM", "result": 77.7, "unit": "%"}, {"measurement": "viability, T/C", "setting": "second compound 0.003 µM, first compound 0.0316 µM", "result": 91.5, "unit": "%"}, {"measurement": "viability, T/C", "setting": "second compound 0.003 µM, first compound 0.1 µM", "result": 104, "unit": "%"}, {"measurement": "viability, T/C", "setting": "second compound 0.003 µM, first compound 0.316 µM", "result": 101, "unit": "%"}, {"measurement": "viability, T/C", "setting": "second compound 0.003 µM, first compound 1 µM", "result": 89.4, "unit": "%"}, {"measurement": "viability, T/C", "setting": "second compound 0.003 µM, first compound 3.16 µM", "result": 102, "unit": "%"}, {"measurement": "viability, T/C", "setting": "second compound 0.003 µM, first compound 10 µM", "result": 85.8, "unit": "%"}, {"measurement": "viability, T/C", "setting": "second compound 0.00949 µM, first compound 0.0316 µM", "result": 96.2, "unit": "%"}, {"measurement": "viability, T/C", "setting": "second compound 0.00949 µM, first compound 0.1 µM", "result": 109, "unit": "%"}, {"measurement": "viability, T/C", "setting": "second compound 0.00949 µM, first compound 0.316 µM", "result": 91.5, "unit": "%"}, {"measurement": "viability, T/C", "setting": "second compound 0.00949 µM, first compound 1 µM", "result": 93.2, "unit": "%"}, {"measurement": "viability, T/C", "setting": "second compound 0.00949 µM, first compound 3.16 µM", "result": 100, "unit": "%"}, {"measurement": "viability, T/C", "setting": "second compound 0.00949 µM, first compound 10 µM", "result": 76.7, "unit": "%"}, {"measurement": "viability, T/C", "setting": "second compound 0.03 µM, first compound 0.0316 µM", "result": 88.5, "unit": "%"}, {"measurement": "viability, T/C", "setting": "second compound 0.03 µM, first compound 0.1 µM", "result": 106, "unit": "%"}, {"measurement": "viability, T/C", "setting": "second compound 0.03 µM, first compound 0.316 µM", "result": 95.1, "unit": "%"}, {"measurement": "viability, T/C", "setting": "second compound 0.03 µM, first compound 1 µM", "result": 98.5, "unit": "%"}, {"measurement": "viability, T/C", "setting": "second compound 0.03 µM, first compound 3.16 µM", "result": 91.2, "unit": "%"}, {"measurement": "viability, T/C", "setting": "second compound 0.03 µM, first compound 10 µM", "result": 80.3, "unit": "%"}, {"measurement": "viability, T/C", "setting": "second compound 0.0949 µM, first compound 0.0316 µM", "result": 89.1, "unit": "%"}, {"measurement": "viability, T/C", "setting": "second compound 0.0949 µM, first compound 0.1 µM", "result": 93, "unit": "%"}, {"measurement": "viability, T/C", "setting": "second compound 0.0949 µM, first compound 0.316 µM", "result": 92.6, "unit": "%"}, {"measurement": "viability, T/C", "setting": "second compound 0.0949 µM, first compound 1 µM", "result": 99.7, "unit": "%"}, {"measurement": "viability, T/C", "setting": "second compound 0.0949 µM, first compound 3.16 µM", "result": 103, "unit": "%"}, {"measurement": "viability, T/C", "setting": "second compound 0.0949 µM, first compound 10 µM", "result": 76.5, "unit": "%"}, {"measurement": "viability, T/C", "setting": "second compound 0.3 µM, first compound 0.0316 µM", "result": 90.8, "unit": "%"}, {"measurement": "viability, T/C", "setting": "second compound 0.3 µM, first compound 0.1 µM", "result": 91.6, "unit": "%"}, {"measurement": "viability, T/C", "setting": "second compound 0.3 µM, first compound 0.316 µM", "result": 85.8, "unit": "%"}, {"measurement": "viability, T/C", "setting": "second compound 0.3 µM, first compound 1 µM", "result": 92.5, "unit": "%"}, {"measurement": "viability, T/C", "setting": "second compound 0.3 µM, first compound 3.16 µM", "result": 88.6, "unit": "%"}, {"measurement": "viability, T/C", "setting": "second compound 0.3 µM, first compound 10 µM", "result": 73.4, "unit": "%"}]}
